The supplement of paper PMC10307832

Assays:
Assay in all cases: relative viability (nuclei count vs DMSO), 5 days (fraction); higher = more cells survive
[1] = system: 201T
How it was run: (§1)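 Relative viability is defined as nuclei in treated wells over nuclei in vehicle wells. Duplicate plates were run and medians reported. Lung cancer cell lines in 1536-well plates were dosed by pin tool one day after seeding, with one drug or with a fixed anchor-drug dose plus five library-drug doses (not always all listed) in √10 steps, and nuclei were counted after 5 days.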

[2] = system: BEN
How it was run: as §1

[3] = system: EMC-BAC-2
How it was run: as §1

[4] = system: HARA
How it was run: as §1

[5] = system: HCC-44
How it was run: as §1

[6] = system: LOU-NH91
How it was run: as §1

[7] = system: NCI-H1395
How it was run: as §1

[8] = system: NCI-H1993
How it was run: as §1

[9] = system: NCI-H2023
How it was run: as §1

[10] = system: NCI-H2087
How it was run: as §1

[11] = system: NCI-H2126
How it was run: as §1

[12] = system: NCI-H2347
How it was run: as §1

[13] = system: NCI-H23
How it was run: as §1

[14] = system: NCI-H3122
How it was run: as §1

[15] = system: NCI-H441
How it was run: as §1

[16] = system: NCI-H596
How it was run: as §1

[17] = system: NCI-H647
How it was run: as §1

[18] = system: NCI-H727
How it was run: as §1

[19] = system: NCI-H838
How it was run: as §1

## COc1cc2nccc(Oc3ccc(NC(=O)Nc4cc(C)on4)c(Cl)c3)c2cc1OC [Tivozanib] + CC1(C)CCC(c2ccc(Cl)cc2)=C(CN2CCN(c3ccc(C(=O)NS(=O)(=O)c4ccc(N[C@H](CCN5CCOCC5)CSc5ccccc5)c(S(=O)(=O)C(F)(F)F)c4)cc3)CC2)C1 [Navitoclax] (partner 0.5 µM)
[1]; first compound 0.005 µM
  relative viability: 1.21
[1]; first compound 0.01581 µM
  relative viability: 1.17
[1]; first compound 0.05 µM
  relative viability: 1.22
[1]; first compound 0.1581 µM
  relative viability: 1.17
[1]; first compound 0.5 µM
  relative viability: 1.18
[2]; first compound 0.005 µM
  relative viability: 0.0616
[2]; first compound 0.01581 µM
  relative viability: 0.0524
[2]; first compound 0.05 µM
  relative viability: 0.0639
[2]; first compound 0.5 µM
  relative viability: 0.0625
[3]; first compound 0.005 µM
  relative viability: 1.27
[3]; first compound 0.01581 µM
  relative viability: 1.11
[3]; first compound 0.05 µM
  relative viability: 1.21
[3]; first compound 0.1581 µM
  relative viability: 1.14
[3]; first compound 0.5 µM
  relative viability: 1.24
[4]; first compound 0.005 µM
  relative viability: 1.11
[4]; first compound 0.01581 µM
  relative viability: 1.04
[4]; first compound 0.05 µM
  relative viability: 1.19
[4]; first compound 0.1581 µM
  relative viability: 1.19
[4]; first compound 0.5 µM
  relative viability: 1.15
[5]; first compound 0.005 µM
  relative viability: 1.01
[5]; first compound 0.01581 µM
  relative viability: 0.986
[5]; first compound 0.05 µM
  relative viability: 1.01
[5]; first compound 0.1581 µM
  relative viability: 0.962
[5]; first compound 0.5 µM
  relative viability: 0.944
[6]; first compound 0.005 µM
  relative viability: 0.641
[6]; first compound 0.01581 µM
  relative viability: 0.715
[6]; first compound 0.05 µM
  relative viability: 0.706
[6]; first compound 0.1581 µM
  relative viability: 0.675
[6]; first compound 0.5 µM
  relative viability: 0.705
[7]; first compound 0.005 µM
  relative viability: 1.14
[7]; first compound 0.01581 µM
  relative viability: 1.08
[7]; first compound 0.05 µM
  relative viability: 1.08
[7]; first compound 0.1581 µM
  relative viability: 1.24
[7]; first compound 0.5 µM
  relative viability: 0.945
[8]; first compound 0.005 µM
  relative viability: 0.86
[8]; first compound 0.01581 µM
  relative viability: 0.857
[8]; first compound 0.05 µM
  relative viability: 0.967
[8]; first compound 0.1581 µM
  relative viability: 0.668
[8]; first compound 0.5 µM
  relative viability: 0.836
[9]; first compound 0.005 µM
  relative viability: 0.909
[9]; first compound 0.01581 µM
  relative viability: 1.02
[9]; first compound 0.05 µM
  relative viability: 1.04
[9]; first compound 0.1581 µM
  relative viability: 0.962
[9]; first compound 0.5 µM
  relative viability: 0.954
[10]; first compound 0.005 µM
  relative viability: 0.906
[10]; first compound 0.01581 µM
  relative viability: 1.07
[10]; first compound 0.05 µM
  relative viability: 1.06
[10]; first compound 0.1581 µM
  relative viability: 0.917
[10]; first compound 0.5 µM
  relative viability: 0.906
[11]; first compound 0.005 µM
  relative viability: 0.842
[11]; first compound 0.01581 µM
  relative viability: 0.818
[11]; first compound 0.05 µM
  relative viability: 0.963
[11]; first compound 0.1581 µM
  relative viability: 0.635
[11]; first compound 0.5 µM
  relative viability: 0.857
[12]; first compound 0.005 µM
  relative viability: 0.735
[12]; first compound 0.01581 µM
  relative viability: 0.765
[12]; first compound 0.05 µM
  relative viability: 0.847
[12]; first compound 0.1581 µM
  relative viability: 0.735
[12]; first compound 0.5 µM
  relative viability: 0.804
[13]; first compound 0.005 µM
  relative viability: 0.753
[13]; first compound 0.01581 µM
  relative viability: 0.718
[13]; first compound 0.05 µM
  relative viability: 0.92
[13]; first compound 0.1581 µM
  relative viability: 0.652
[13]; first compound 0.5 µM
  relative viability: 0.938
[14]; first compound 0.005 µM
  relative viability: 1.03
[14]; first compound 0.01581 µM
  relative viability: 1
[14]; first compound 0.05 µM
  relative viability: 1.07
[14]; first compound 0.1581 µM
  relative viability: 1.03
[14]; first compound 0.5 µM
  relative viability: 1.03
[15]; first compound 0.005 µM
  relative viability: 0.473
[15]; first compound 0.01581 µM
  relative viability: 0.424
[15]; first compound 0.05 µM
  relative viability: 0.747
[15]; first compound 0.1581 µM
  relative viability: 0.566
[15]; first compound 0.5 µM
  relative viability: 0.545
[16]; first compound 0.005 µM
  relative viability: 0.94
[16]; first compound 0.01581 µM
  relative viability: 1.07
[16]; first compound 0.05 µM
  relative viability: 0.936
[16]; first compound 0.1581 µM
  relative viability: 0.911
[16]; first compound 0.5 µM
  relative viability: 0.922
[17]; first compound 0.005 µM
  relative viability: 1.12
[17]; first compound 0.01581 µM
  relative viability: 1.24
[17]; first compound 0.05 µM
  relative viability: 1.21
[17]; first compound 0.1581 µM
  relative viability: 1.19
[17]; first compound 0.5 µM
  relative viability: 1.03
[18]; first compound 0.005 µM
  relative viability: 0.343
[18]; first compound 0.01581 µM
  relative viability: 0.49
[18]; first compound 0.05 µM
  relative viability: 0.412
[18]; first compound 0.5 µM
  relative viability: 0.551
[19]; first compound 0.005 µM
  relative viability: 1.09
[19]; first compound 0.01581 µM
  relative viability: 1.16
[19]; first compound 0.05 µM
  relative viability: 1.2
[19]; first compound 0.5 µM
  relative viability: 1.12
